In PMC4245125, “Pharmacological and Behavioral Characterization of D-473, an Orally Active Triple Reuptake Inhibitor Targeting Dopamine, Serotonin and Norepinephrine Transporters” (PLoS ONE, 2014):

Tests used:
κ-opioid = target: T1, κ-opioid (Homo sapiens, UniProt P41145); experiment: NIMH PDSP receptor binding, κ-opioid; conditions: [3H]Bremazocine, read-out: % Inhibition of Binding at 10 µM D-473
T1 construct: purchased NIMH PDSP

Beta3 = target: T2, Beta3 (Homo sapiens, UniProt P13945); experiment: NIMH PDSP receptor binding, Beta3; conditions: [125I]Iodopindolol
T2 construct: NIMH PDSP
T2 sequence (P13945 whole entry): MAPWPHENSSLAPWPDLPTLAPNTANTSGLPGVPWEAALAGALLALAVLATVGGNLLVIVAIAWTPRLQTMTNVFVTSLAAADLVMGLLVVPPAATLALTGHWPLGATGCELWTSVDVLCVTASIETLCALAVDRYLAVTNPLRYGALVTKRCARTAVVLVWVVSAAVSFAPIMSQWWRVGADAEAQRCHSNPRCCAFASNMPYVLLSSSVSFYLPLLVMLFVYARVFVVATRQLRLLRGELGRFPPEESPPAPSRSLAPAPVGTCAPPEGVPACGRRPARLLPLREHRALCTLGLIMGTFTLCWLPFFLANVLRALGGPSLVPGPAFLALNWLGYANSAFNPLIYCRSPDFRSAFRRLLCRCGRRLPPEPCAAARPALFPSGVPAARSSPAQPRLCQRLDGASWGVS

5HT7 = target: T3, 5HT7 (Homo sapiens, UniProt P34969); experiment: NIMH PDSP receptor binding, 5HT7; conditions: [3H]LSD, read-out: % Inhibition of Binding at 10 µM D-473
T3 construct: purchased NIMH PDSP
T3 sequence (P34969 whole entry): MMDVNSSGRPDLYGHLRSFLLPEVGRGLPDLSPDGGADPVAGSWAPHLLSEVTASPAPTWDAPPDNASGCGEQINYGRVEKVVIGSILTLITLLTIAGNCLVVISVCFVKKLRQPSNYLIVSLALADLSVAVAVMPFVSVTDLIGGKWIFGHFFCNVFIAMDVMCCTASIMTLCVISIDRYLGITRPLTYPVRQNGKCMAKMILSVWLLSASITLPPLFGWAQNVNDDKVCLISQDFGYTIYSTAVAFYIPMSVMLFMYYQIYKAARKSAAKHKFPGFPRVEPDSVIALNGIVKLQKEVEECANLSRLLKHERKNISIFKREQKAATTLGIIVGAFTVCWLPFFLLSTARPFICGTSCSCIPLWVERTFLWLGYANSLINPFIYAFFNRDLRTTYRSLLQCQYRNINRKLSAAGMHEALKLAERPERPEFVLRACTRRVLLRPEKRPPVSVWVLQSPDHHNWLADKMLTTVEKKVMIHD

5HT1e = target: T4, 5HT1e (Homo sapiens, UniProt P28566); experiment: NIMH PDSP receptor binding, 5HT1e; conditions: [3H]5-HT, read-out: % Inhibition of Binding at 10 µM D-473
T4 construct: purchased NIMH PDSP
T4 sequence (P28566 whole entry): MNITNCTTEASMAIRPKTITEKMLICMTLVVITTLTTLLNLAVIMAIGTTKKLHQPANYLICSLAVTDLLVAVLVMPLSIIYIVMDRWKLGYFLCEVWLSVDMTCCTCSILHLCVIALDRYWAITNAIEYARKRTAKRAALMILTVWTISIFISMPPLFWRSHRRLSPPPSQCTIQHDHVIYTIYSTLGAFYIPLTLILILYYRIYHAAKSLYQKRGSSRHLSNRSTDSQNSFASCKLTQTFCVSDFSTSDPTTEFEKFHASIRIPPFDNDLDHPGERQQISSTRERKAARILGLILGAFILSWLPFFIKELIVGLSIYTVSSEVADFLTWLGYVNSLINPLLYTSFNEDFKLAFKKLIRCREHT

GABA A = experiment: NIMH PDSP receptor binding, GABA A; conditions: [3H]Muscimol
[1] = tested on: extracellular DA, 5-HT, NE and metabolites in the dorsal lateral striatum (DLS); experiment: Microdialysis in dorsal lateral striatum, monoamines and metabolites; format: in vivo, rat; conditions: 10 mg/kg i.p.
Protocol: Adult male Sprague-Dawley rats (Harlan, Indianapolis, IN) weighing between 250 and 350 g were used for all experiments. Rats were housed in a temperature and humidity controlled room with 12 hr light/dark cycles with food and water available ad libitum. Adequate measures were taken to prevent animal pain and discomfort. All animals were treated as approved by the University of Michigan Unit for Laboratory Animal Medicine (ULAM) and in accordance with the National Institute of Health (NIH) Guidelines for the Care and Use of Laboratory Animals.
Rats were anesthetized with using an isoflurane vaporizer that was interfaced to a model 963 Ultra Precise stereotaxic instrument with 0.1 mm resolution (David Kopf Instruments, Tujunga, CA). Concentrically designed microdialysis probes (1 mm dialyzing length) were built in house then implanted bilaterally into the dorsal lateral striatum (DLS) and the medial prefrontal cortex (mPFC) according to the following coordinates from bregma and dura (in mm): AP +1, ML +3.3, DV –5.7 and AP +3, ML −0.5, DV −5, respectively (Paxinos and Watson, 2007). […] 1 mm probes were selected for higher spatial resolution and lower tissue damage compared to larger probes. Probes were secured to the skull by acrylic dental cement and metallic screws. Following surgery, rats were allowed to recover and experiments were run 24 hr after probe implantation. Microdialysis probes were flushed at a flow rate of 2 µl/min with aCSF (composition in mM: CaCl2 1.2; KCl 2.7, NaCl 148 and MgCl2 0.85) for 2 hr using a Chemyx Fusion 400 syringe pump (Chemyx, Stafford, TX). Perfusion flow rate was then reduced to 1 µl/min and samples were collected every 10 min. Baseline values were collected for 50 min and then the drug D-473 was injected (10 mg/kg, i.p.) and samples were collected for an additional 2 h. When experiments were completed, animals were euthanized and then brains were extracted and frozen at −80°C until histology.
Dopamine, norepinephrine (NE), serotonin (5HT), DOPAC, homovanillic acid (HVA) and 5-hydroxyindole acetic acid (5-HIAA) were analyzed using a benozyolation derivitization LC-MS method recently described by our laboratory. Briefly, 10 µl dialysate samples were derivatized by adding 5 µl of 100 mM sodium tetraborate, 5 µl of 2% benzoyl chloride in acetonitrile, and then 5 µl of a stable ^13C benzoylated isotope internal standard mixture was then added to improve quantitation. A Thermo Fisher Accela UHPLC (Waltham, MA) system automatically injected 5 µl of the sample onto a Waters (Milford, MA) HSS T3 reverse phase HPLC column (1 mm X 100 mm, 1.8 µm). Mobile phase A consisted of 10 mM ammonium formate and 0.15% formic acid. Mobile phase B was pure acetonitrile. Analytes were detected by an Thermo Fisher TSQ Quantum Ultra triple quadrupole mass spectrometer operating in multiple reaction monitoring (MRM) mode. The assay limits of detection were (nM in dialysate) for DA, 0.3; NE, 0.2; 5HT, 0.1; HVA, 0.5; DOPAC, 2; and 5HIAA, 5. […] Average standard deviation in above basal levels was 18%.
All neurochemical data were transformed into percent baseline with baseline values all averaging 100%. Statistical analysis was performed by t-test analysis of every point relative to baseline values (i.e. 100%) using Prism 6 (Graphpad Software Inc, La Jolla, CA). P values <0.05 were considered to be statistically significant.

[2] = tested on: locomotor activity (horizontal activity); experiment: Locomotor activity in rats; format: in vivo; conditions: rat; 25 mg/kg oral; 2 h post administration; vs vehicle
Protocol: Sprague Dawley Rats were tested at 25 mg/kg oral dose of D-473 to monitor changes in any locomotor activity in acrylic Auto-Track/Opto-Varimex-4 System (Columbus Instrument; Columbus, Ohio). The purpose was to evaluate locomotor activity of the same doses of drug that were used in the forced swim test. Rats were acclimated in the test chambers for 1 h prior to oral administration of D-473. Locomotor activity of the drug was measured for a total of two hour post administration of the drug which corresponded to the time of measurement in the forced swimming experiment. GBR 12909 was studied as a control drug known to stimulate and was administered i.p. as in published studies; vehicle was orally administered.

H2 = target: T5, H2 (Homo sapiens, UniProt P25021); experiment: NIMH PDSP receptor binding, H2; conditions: [3H]Tiotodine
T5 construct: NIMH PDSP
T5 sequence (P25021 whole entry): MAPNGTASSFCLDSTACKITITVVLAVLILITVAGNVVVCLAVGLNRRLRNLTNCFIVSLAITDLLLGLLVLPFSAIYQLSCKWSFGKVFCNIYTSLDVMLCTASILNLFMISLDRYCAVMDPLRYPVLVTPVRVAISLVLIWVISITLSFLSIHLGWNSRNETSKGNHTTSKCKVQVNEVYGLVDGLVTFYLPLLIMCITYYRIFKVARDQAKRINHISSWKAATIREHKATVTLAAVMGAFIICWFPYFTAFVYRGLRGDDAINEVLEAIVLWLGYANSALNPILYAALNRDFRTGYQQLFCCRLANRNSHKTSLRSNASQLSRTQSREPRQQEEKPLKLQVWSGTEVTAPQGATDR

Alpha2A = target: T6, Alpha2A (Homo sapiens, UniProt P08913); experiment: NIMH PDSP receptor binding, Alpha2A; conditions: [3H]Clonidine, read-out: % Inhibition of Binding at 10 µM D-473
T6 construct: purchased NIMH PDSP
T6 sequence (P08913 whole entry): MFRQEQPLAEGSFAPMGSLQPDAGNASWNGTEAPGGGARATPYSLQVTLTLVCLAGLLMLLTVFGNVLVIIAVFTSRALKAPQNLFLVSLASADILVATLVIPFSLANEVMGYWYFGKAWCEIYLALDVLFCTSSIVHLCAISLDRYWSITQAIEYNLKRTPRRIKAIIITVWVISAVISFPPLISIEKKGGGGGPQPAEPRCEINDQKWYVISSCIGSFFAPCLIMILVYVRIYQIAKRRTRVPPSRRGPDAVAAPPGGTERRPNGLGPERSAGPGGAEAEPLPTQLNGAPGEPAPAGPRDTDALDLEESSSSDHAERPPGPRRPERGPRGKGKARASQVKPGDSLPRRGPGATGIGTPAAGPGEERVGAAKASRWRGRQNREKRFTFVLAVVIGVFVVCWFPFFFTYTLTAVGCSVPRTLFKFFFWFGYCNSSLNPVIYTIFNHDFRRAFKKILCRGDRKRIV

5HT5a = target: T7, 5HT5a (Homo sapiens, UniProt P47898); experiment: NIMH PDSP receptor binding, 5HT5a; conditions: [3H]LSD, read-out: % Inhibition of Binding at 10 µM D-473
T7 construct: purchased NIMH PDSP
T7 sequence (P47898 whole entry): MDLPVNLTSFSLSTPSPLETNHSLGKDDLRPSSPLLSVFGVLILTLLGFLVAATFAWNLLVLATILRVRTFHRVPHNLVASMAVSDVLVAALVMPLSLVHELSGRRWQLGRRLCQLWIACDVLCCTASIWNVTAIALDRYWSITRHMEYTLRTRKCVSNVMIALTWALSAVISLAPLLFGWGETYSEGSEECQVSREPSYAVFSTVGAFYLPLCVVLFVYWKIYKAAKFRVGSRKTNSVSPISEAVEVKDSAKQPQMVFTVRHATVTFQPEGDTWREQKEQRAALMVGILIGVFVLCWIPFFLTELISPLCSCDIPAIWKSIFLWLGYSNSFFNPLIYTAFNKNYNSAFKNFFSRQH

D3 = target: T8, D3 (Homo sapiens, UniProt P35462); experiment: NIMH PDSP receptor binding, D3; conditions: [3H]N-methylspiperone, read-out: % Inhibition of Binding at 10 µM D-473
T8 construct: purchased NIMH PDSP
T8 sequence (P35462 whole entry): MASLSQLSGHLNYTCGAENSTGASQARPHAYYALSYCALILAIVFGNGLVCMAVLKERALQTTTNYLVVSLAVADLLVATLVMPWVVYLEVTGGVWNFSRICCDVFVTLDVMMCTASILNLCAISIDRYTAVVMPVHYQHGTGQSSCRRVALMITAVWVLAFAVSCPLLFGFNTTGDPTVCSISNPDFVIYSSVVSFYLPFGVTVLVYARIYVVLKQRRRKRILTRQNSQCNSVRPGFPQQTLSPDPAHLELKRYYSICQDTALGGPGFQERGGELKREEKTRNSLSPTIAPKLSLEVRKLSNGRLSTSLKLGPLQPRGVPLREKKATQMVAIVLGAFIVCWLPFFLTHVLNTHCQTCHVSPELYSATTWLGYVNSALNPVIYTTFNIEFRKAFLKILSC

5HT6 = target: T9, 5HT6 (Homo sapiens, UniProt P50406); experiment: NIMH PDSP receptor binding, 5HT6; conditions: [3H]LSD, read-out: % Inhibition of Binding at 10 µM D-473
T9 construct: purchased NIMH PDSP
T9 sequence (P50406 whole entry): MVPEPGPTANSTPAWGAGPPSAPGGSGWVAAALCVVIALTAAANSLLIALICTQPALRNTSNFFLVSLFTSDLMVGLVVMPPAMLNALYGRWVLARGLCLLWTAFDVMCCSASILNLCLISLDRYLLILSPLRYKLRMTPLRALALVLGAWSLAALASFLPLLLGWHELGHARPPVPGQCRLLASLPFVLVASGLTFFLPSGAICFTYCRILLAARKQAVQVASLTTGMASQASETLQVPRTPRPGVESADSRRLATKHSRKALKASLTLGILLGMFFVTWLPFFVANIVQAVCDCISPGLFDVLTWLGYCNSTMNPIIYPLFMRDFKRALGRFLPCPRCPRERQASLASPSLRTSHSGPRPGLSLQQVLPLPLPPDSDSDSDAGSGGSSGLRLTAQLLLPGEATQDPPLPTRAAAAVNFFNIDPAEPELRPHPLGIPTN

5HT3 = target: T10, 5HT3 (Homo sapiens, UniProt P46098); experiment: NIMH PDSP receptor binding, 5HT3; conditions: [3H] LY 278,584, read-out: % Inhibition of Binding at 10 µM D-473
T10 construct: purchased NIMH PDSP
T10 sequence (P46098 24-478): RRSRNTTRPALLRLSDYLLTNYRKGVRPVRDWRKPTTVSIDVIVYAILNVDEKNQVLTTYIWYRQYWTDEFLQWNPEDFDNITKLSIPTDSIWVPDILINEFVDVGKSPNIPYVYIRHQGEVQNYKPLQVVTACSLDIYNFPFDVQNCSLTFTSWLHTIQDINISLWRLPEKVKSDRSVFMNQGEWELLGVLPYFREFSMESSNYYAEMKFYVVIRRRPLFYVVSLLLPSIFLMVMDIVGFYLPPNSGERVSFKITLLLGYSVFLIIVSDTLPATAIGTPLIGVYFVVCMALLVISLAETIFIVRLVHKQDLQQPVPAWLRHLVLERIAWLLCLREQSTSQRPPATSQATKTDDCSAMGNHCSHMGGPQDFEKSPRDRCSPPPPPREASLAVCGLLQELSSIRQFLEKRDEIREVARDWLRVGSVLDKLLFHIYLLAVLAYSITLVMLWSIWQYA

[3] = 10 µM, read-out: % Inhibition of Binding at 10 µM D-473
[4] = secondary assay, read-out: Ki for D-473

T1 sequence (P41145 whole entry): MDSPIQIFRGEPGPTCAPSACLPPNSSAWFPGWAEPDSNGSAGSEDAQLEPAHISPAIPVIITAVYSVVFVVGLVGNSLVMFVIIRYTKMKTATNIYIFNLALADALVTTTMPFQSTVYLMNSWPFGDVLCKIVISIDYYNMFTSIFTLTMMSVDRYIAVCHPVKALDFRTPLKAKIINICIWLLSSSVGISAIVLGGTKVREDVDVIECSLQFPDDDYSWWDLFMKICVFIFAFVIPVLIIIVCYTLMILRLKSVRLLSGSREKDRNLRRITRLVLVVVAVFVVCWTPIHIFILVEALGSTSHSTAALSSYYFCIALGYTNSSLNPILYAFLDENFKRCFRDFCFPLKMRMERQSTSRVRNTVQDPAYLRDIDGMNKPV

Compound: COc1ccc(CN[C@@H]2CO[C@H](C(c3ccc(F)cc3)c3ccc(F)cc3)C[C@H]2O)cc1 [Compound D-473, (2S,4R,5R)-2-(bis(4-fluorophenyl)methyl)-5-((4-methoxybenzyl)amino)tetrahydro-2H-pyran-4-ol]
- inhibition at 10 µM (κ-opioid): 48.5%
- inhibition at 10 µM (Beta3; [3]): 61.2%
- Ki (Beta3; [4]): > 10000 nM
- inhibition at 10 µM (5HT7): 41.4%
- inhibition at 10 µM (5HT1e): 38%
- % Inhibition of Binding at 10 µM D-473 (GABA A): 5.1%
- Elevation of 5-HT over the basal level [1]: > 4 fold
- Increase in DA [1]: 2 fold
- Increase in NE [1]: 2 fold
- Reduction of DOPAC, maximal [1]: 35–40%
- Reduction of HVA, maximal [1]: 20%
- Extracellular 5-HT at the end of two hours, percent baseline ([1]; baseline 100%): 215%
- Extracellular 5-HT, maximal, percent baseline ([1]; baseline 100%): 403%
- Extracellular DA at the end of two hours, percent baseline ([1]; baseline 100%): 129%
- Extracellular DA, maximal, percent baseline ([1]; baseline 100%): 274%
- Extracellular NE at the end of two hours, percent baseline ([1]; baseline 100%): 142%
- Extracellular NE, maximal, percent baseline ([1]; baseline 100%): 238%
- Locomotor activity (horizontal activity) [2]: statistically indistinguishable from vehicle
- inhibition at 10 µM (H2; [3]): 70.1%
- Ki (H2; [4]): 141 nM
- inhibition at 10 µM (Alpha2A): 14.5%
- inhibition at 10 µM (5HT5a): 19.5%
- inhibition at 10 µM (D3): 30.8%
- inhibition at 10 µM (5HT6): -11.4%
- inhibition at 10 µM (5HT3): 3.5%
